Measurements as given in patent publication US11519859B2, “Rhodol-based thallium sensors for high-throughput screening of potassium channels” (priority 2018, dated 2022).
Values joined by “and” are separate entries in the source; they are usually repeats but may differ in a detail not shown here. Equal entries are not always repeated.

Assays:
[1] = Determination of photochemical properties of saponified dyes; type: physicochemical; details: for λem (fluorescence emission maximum) / λmax (absorption maximum) / ε (molar absorptivity): after saponification, 150 mM KCl, 10 mM HEPES, 50 μM EDTA, pH = 7.22; for ε (molar absorptivity): at λmax
Description: Evaluation of the photochemical properties of the active Thallium sensing species was accomplished by saponifying 10 μL of each pro-dye stock solution by incubating with 90 μL of 0.1 M KOH for 20 min at 37° C. with the exception of 8b which was treated with 1% NH4OH for 1 h at 37° C. The saponified compounds were diluted into 150 mM KCl buffered with 10 mM HEPES, pH=7.22 with 50 μM of EDTA. All photochemical measurements were taken in this buffer. Absorbance and fluorescence emission spectra were recorded on a Molecular Devices Spectromax M5 using polystyrene cuvettes with path length=1 cm at 23° C. Molar absorptivities are reported for λmax. The emission wavelengths monitored for recording excitation spectra, the excitation wavelengths used for recording emission spectra, and the corresponding emission cutoff filters used are listed in Table 2 below, and representative excitation and emission spectra are shown in FIG. 7.
To determine the in vitro photochemical properties of the active Tl^+ sensing species, 8a-m were treated with base to remove the acetoxymethyl esters and aryl acetate and then diluted into 10 mM HEPES buffered 150 mM KCl with 50 μM EDTA at pH=7.22.

[2] = Compound storage as DMSO stock solutions; type: physicochemical; details: 10 mM stock solutions in DMSO at −20° C.
Description: Compounds 8a-m were dissolved in DMSO and stored as 10 mM stock solutions at −20° C. […] To prevent this, dry aliquots of 8a were prepared and dissolved in DMSO immediately before use.

[3] = test system: HEK-293 cells co-expressing GIRK1 and GIRK2; details: dye loading 1 h, 1 mM Tl^+ stimulus; for on/off (Tl^+ flux assay), maximum fold increase in fluorescence after Tl^+ addition: 10 μM ML297, 2 mM Allura Red AC, n = 6
Description: HEK-293 cells co-expressing GIRK1 and GIRK2 were cultured to 80% confluence in a T75 flask (Techno Plastic Products, Trasadingen, CH) at 37° C. and 5% CO2 in medium consisting of Minimal Essential Medium (Cellgro, Manassas, Va.) containing 1× Glutagro (Cellgro, Manassas, Va.) and 10% (v/v) heat-inactivated fetal bovine serum (Life Technologies, Carlsbad, Calif.). The cells were dislodged by treatment with TrypLE (Gibco/Life Technologies, Carlsbad, Calif.), diluted in medium, and plated on clear bottomed, black-walled, amine coated 384 well plates (BD Biosciences, Billerica, Mass.) at a density ˜20,000 cells per well. The plated cells were incubated overnight at 37° C. and 5% CO2 and used for the assay the next day.
Dye loading solutions of Thallos were prepared by dissolving a 25 μg aliquot in 30 μL of 6.7% Pluoronic F-127 (w/v) in DMSO and diluting the resulting solution 1:1000 into assay buffer. Culture medium was removed and replaced with 20 μL of dye loading buffer and incubated in the dark at room temperature for 1 h.
Assay—Assays were conducted on a WaveFront Biosciences Panoptic 1 or 2 (WaveFront Biosciences, Franklin, Tenn.) as indicated. Dye loading solutions were removed and replaced with assay buffer immediately before imaging unless otherwise noted. 10 s following commencement of plate imaging, 20 μL of compound at 2.5× concentration in assay buffer was added and incubated for 120 s at which point 10 μL of Tl^+ at 5× concentration in stimulus buffer (125 mM NaHCO3, 1.8 mM CaSO4, 1 mM MgSO4, 5 mM glucose, 10 mM HEPES, pH 7.4, and T12SO4), and images taken for the following 120 s.
1 mM of T12SO4 (final concentration) was used for stimulus. Assay and stimulus buffers were supplemented with 2 mM of Allura Red AC. […] On/off ratios were calculated by dividing the fluorescence intensity after saturation following Tl^+ addition by the fluorescence intensity immediately after compound addition (n=6).

[4] = test system: HEK-293 cells co-expressing GIRK1 and GIRK2; experiment: Fold increase in dye fluorescence in Tl+ flux assay with ML297 concentration series; type: cell-based
Source text: ML297 concentration response curves—In general, all concentration-response data were collected on a WaveFront Biosciences Panoptic 2. Thallos treated cells were imaged using 482/35 nm excitation and 536/40 nm emission filters. 8c treated cells were imaged using 529/24 nm excitation and 565/24 nm emission filters (unless otherwise noted). FluxOR Red treated cells were imaged using 544/24 nm excitation and 593/40 nm emission filters (all filters purchased from Semrock, Rochester, N.Y.). FluxOR Red reagent was prepared according to the manufacturer's procedure. 5 μM of 8c was used for dye loading for all conditions.
FluxOR Red procedure with background suppressor. The manufacturer's procedure was followed with the exceptions that the dye loading solution was replaced with 20 μL of assay buffer, solutions of ML297 were prepared in assay buffer plus background suppressor, 20 μL of compound solution was added and 10 μL stimulus buffer (basal) was added according to the general assay protocol described above.
FluxOR Red procedure without background suppressor. The FluxOR Red manufacturer's procedure was followed except the background suppressor was replaced by H2O in all buffers.
Bicarbonate buffer with Allura Red AC. […]
The fluorescence intensity values of the first 6 time points for each well were averaged and the fluorescence intensity for all time points in the well was divided by this value to provide F/Fo for each time point. The average F/Fo of the vehicle control was then subtracted from each curve and the normalized, control subtracted fluorescence intensity value was sampled at a time point several seconds after Tl^+ addition. […] Fold increases in fluorescence reported in the main paper were calculated by averaging F/Fo between 100 and 110 s after Tl^+ addition. […]
The performance of 8c was evaluated in a Tl^+ flux assay to generate a concentration response curve (CRC) of the GIRK activator ML297. […] Normalized, control subtracted fluorescence intensity values were sampled along the curves following Tl^+ addition at each concentration and a CRC was fit using GraphPad Prism (FIG. 3B).

SMILES | λem (fluorescence emission maximum) [1] [nm] | λmax (absorption maximum) [1] [nm] | ε (molar absorptivity) [1] [M⁻¹ cm⁻¹] | stability on storage [2] | on/off (Tl^+ flux assay), maximum fold increase in fluorescence after Tl^+ addition [3] | fold increase in fluorescence at the highest ML297 concentration ([4]; FluxOR Red kit procedure with background suppressor, 10 μM ML297, F/Fo 100-110 s after Tl^+) [fold] | fold increase in fluorescence at the highest ML297 concentration ([4]; FluxOR Red kit procedure without background suppressor) [fold] | fold increase in fluorescence ([4]; bicarbonate stimulus buffer, 500 μM Tl^+, no-wash, 1 mM Allura Red AC) [fold] | fluorescence of saponified dye (in words) ([1]; reason why spectra were not recorded) | fluorescence and response to Tl^+ in cells (in words) [3]
COc1cc(NC(=O)c2ccc3c(c2)C(=O)OC32c3ccc(N)cc3Oc3cc(OC(C)=O)ccc32)ccc1N(CC(=O)OCOC(C)=O)CC(=O)OCOC(C)=O (stereo not shown) [Compound 8a, bis(acetoxymethyl) 2,2′-((4-(3′-acetoxy-6′-amino-3-oxo-3H-spiro[isobenzofuran-1,9′-xanthen]-5-ylcarboxamido)-2-methoxyphenyl)azanediyl)diacetate] | 520 | 496 | 57000 | appeared to undergo transacetylation | 3.02 ± 0.08 fold | – | – | – | – | –
COc1cc(NC(=O)c2ccc3c(c2)C(=O)OC32c3ccc(OC(C)=O)cc3Oc3cc(N(C)C)ccc32)ccc1N(CC(=O)OCOC(C)=O)CC(=O)OCOC(C)=O (stereo not shown) [Compound 8c, bis(acetoxymethyl) 2,2′-((4-(3′-acetoxy-6′-(dimethylamino)-3-oxo-3H-spiro[isobenzofuran-1,9′-xanthene]-5-carboxamido)-2-methoxyphenyl)azanediyl)diacetate] | 551 | 521 | 56000 | – | 4.21 fold and 4.21 ± 0.04 fold | 3.09±0.004 | 2.87±0.004 | 3.40±0.009 | – | –
COc1cc(NC(=O)c2ccc3c(c2)C(=O)OC32c3ccc(Nc4ccccc4)cc3Oc3cc(OC(C)=O)ccc32)ccc1N(CC(=O)OCOC(C)=O)CC(=O)OCOC(C)=O (stereo not shown) [Compound 8i, bis(acetoxymethyl) 2,2′-((4-(3′-acetoxy-3-oxo-6′-(phenylamino)-3H-spiro[isobenzofuran-1,9′-xanthen]-5-ylcarboxamido)-2-methoxyphenyl)azanediyl)diacetate] | – | 517 | 52000 | – | 1.07 ± 0.01 fold | – | – | – | very weak fluorescence | minor increase in fluorescence
COc1cc(NC(=O)c2ccc3c(c2)C(=O)OC32c3ccc(OC(C)=O)cc3Oc3cc(N4CCC4)ccc32)ccc1N(CC(=O)OCOC(C)=O)CC(=O)OCOC(C)=O (stereo not shown) [Compound 8j, bis(acetoxymethyl) 2,2′-((4-(3′-acetoxy-6′-(azetidin-1-yl)-3-oxo-3H-spiro[isobenzofuran-1,9′-xanthen]-5-ylcarboxamido)-2-methoxyphenyl)azanediyl)diacetate] | 550 | 522 | 56000 | – | 3.92 ± 0.13 fold | – | – | – | – | –
COc1cc(NC(=O)c2ccc3c(c2)C(=O)OC32c3ccc(OC(C)=O)cc3Oc3cc(N4CC(F)(F)C4)ccc32)ccc1N(CC(=O)OCOC(C)=O)CC(=O)OCOC(C)=O (stereo not shown) [Compound 8k, bis(acetoxymethyl) 2,2′-((4-(3′-acetoxy-6′-(3,3-difluoroazetidin-1-yl)-3-oxo-3H-spiro[isobenzofuran-1,9′-xanthen]-5-ylcarboxamido)-2-methoxyphenyl)azanediyl)diacetate] | 530 | 506 | 66000 | – | 2.02 ± 0.04 fold | – | – | – | – | almost half the response to Tl^+
COc1cc(NC(=O)c2ccc3c(c2)C(=O)OC32c3ccc(OC(C)=O)cc3Oc3cc(N4CCCC4)ccc32)ccc1N(CC(=O)OCOC(C)=O)CC(=O)OCOC(C)=O (stereo not shown) [Compound 8l, bis(acetoxymethyl) 2,2′-((4-(3′-acetoxy-3-oxo-6′-(pyrrolidin-1-yl)-3H-spiro[isobenzofuran-1,9′-xanthen]-5-ylcarboxamido)-2-methoxyphenyl)azanediyl)diacetate] | 553 | 525 | 39000 | – | 3.54 ± 0.07 fold | – | – | – | – | –
COc1cc(NC(=O)c2ccc3c(c2)C(=O)OC32c3ccc(OC(C)=O)cc3Oc3cc(N4CCCCC4)ccc32)ccc1N(CC(=O)OCOC(C)=O)CC(=O)OCOC(C)=O (stereo not shown) [Compound 8m, bis(acetoxymethyl) 2,2′-((4-(3′-acetoxy-3-oxo-6′-(piperidin-1-yl)-3H-spiro[isobenzofuran-1,9′-xanthen]-5-ylcarboxamido)-2-methoxyphenyl)azanediyl)diacetate] | 557 | 526 | 48000 | – | 3.09 ± 0.04 fold | – | – | – | – | –
